Laboratory results: PMC6520365, “Structural and functional characterization of the PDZ domain of the human phosphatase PTPN3 and its interaction with the human papillomavirus E6 oncoprotein” (Scientific Reports, 2019)
Ends that are not written are not given here.

Molecular target: T1, PTPN3-PDZ (Homo sapiens, UniProt P26045)
T1 construct: GST (followed by a TEV cleavage site) (N, cleaved yes); made in house; host or cells: E. coli BL21 Star (DE3)
T1 sequence (P26045 510-582 limits assumed): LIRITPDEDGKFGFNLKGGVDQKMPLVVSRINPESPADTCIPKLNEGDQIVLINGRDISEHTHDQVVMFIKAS
Test: NMR titration (1H,15N HSQC chemical shift perturbation) of PBM peptide affinity for PTPN3-PDZ
Assay type: binding
Method: The affinities of HPV16E6 PBM, HPV18E6 PBM, p38γ PBM and HBVc PBM for PTPN3-PDZ were measured by NMR titration. We followed ^1H, ^15N chemical shift perturbations of PTPN3-PDZ signals in the ^1H-^15N HSQC spectra as a function of increasing concentrations of the PBM peptide to determine the dissociation constant (KD) (Fig. S1). […] The KD values are all in the same tenth-of-micromolar range for the viral PBMs and are close to the one of the cellular partner p38γ. […]
Briefly, the unlabeled peptides (stock solutions ranging from 2.8 to 5.7 mM) at pH 7.5 were added stepwise in a sample initially containing 240–260 μL of ^15N-labeled PTPN3-PDZ at a concentration of 95 or 149 μM. A series of ^1H, ^15N HSQC spectra was recorded for the different titration points. Chemical shift changes were calculated using the free PTPN3-PDZ signals as a reference. Chemical shift differences in the cross-peaks by titration were calculated using the relationship: Δδ = ((ΔδHN)^2 + (0.15 × ΔδN)^2)^0.5 where ΔδHN and ΔδN are changes in the ^1H and ^15N chemical shifts in ppm, respectively. […]

Sequence: RQERLQRRETQV [HPV18E6 PBM]
- Kd: 37 ± 20 µM
